{
  "source": "patent US11406619B2",
  "about": "“Injectable formulations” (priority 2020, dated 2022)",
  "experiment": "pH readings of formulations at preparation and on storage",
  "assay_type": "physicochemical",
  "settings": "for pH / drop in pH on preparation: 2.5 mg/mL in 40 mM B-R buffer",
  "procedure": "pH readings were obtained using a Mettler Toledo MP225 pH meter. The electrode probe was inserted into the test solutions, contained in a glass vial, with brief stirring at ambient temperature.\nInstrument verification was performed prior and post each use using, as supplied, pH buffer solutions over the range pH 1.68 to 10.01 for confirmation of accuracy.",
  "key": {"[1]": {"settings": "phosphate buffer pH 7.4 in 0.45% w/v sodium chloride, both 30 mM and 50 mM buffer strengths"}},
  "note": "Marks after values point to notes of the source that are not given here.",
  "data": [
    {"substance": "DMT fumarate [SPL026]", "values": [
      {"measurement": "pH", "setting": "nominal pH 4.0, Day 7 (7 days 40° C.)", "value": 3.84},
      {"measurement": "pH", "setting": "nominal pH 4.0, Day 17 (10 days 40° C. then 7 days 50° C.)", "value": 3.84},
      {"measurement": "pH", "setting": "nominal pH 4.0, Initial", "value": 3.86},
      {"measurement": "pH", "setting": "nominal pH 5.0, Day 7 (7 days 40° C.)", "value": 4.55},
      {"measurement": "pH", "setting": "nominal pH 5.0, Day 17 (10 days 40° C. then 7 days 50° C.)", "value": 4.52},
      {"measurement": "pH", "setting": "nominal pH 5.0, Initial", "value": 4.57},
      {"measurement": "pH", "setting": "nominal pH 6.0, Day 7 (7 days 40° C.)", "value": 5.07},
      {"measurement": "pH", "setting": "nominal pH 6.0, Day 17 (10 days 40° C. then 7 days 50° C.)", "value": 5.06},
      {"measurement": "pH", "setting": "nominal pH 6.0, Initial", "value": 5.08},
      {"measurement": "pH", "setting": "nominal pH 6.5, Day 7 (7 days 40° C.)", "value": 5.33},
      {"measurement": "pH", "setting": "nominal pH 6.5, Day 17 (10 days 40° C. then 7 days 50° C.)", "value": 5.31},
      {"measurement": "pH", "setting": "nominal pH 6.5, Initial", "value": 5.33},
      {"measurement": "pH", "setting": "nominal pH 6.5 sparged N2, Day 17 (10 days 40° C. then 7 days 50° C.)", "value": 6.09},
      {"measurement": "pH", "setting": "nominal pH 6.5 sparged N2, Initial", "value": 6.12},
      {"measurement": "pH", "setting": "nominal pH 7.0, Day 7 (7 days 40° C.)", "value": 6.10},
      {"measurement": "pH", "setting": "nominal pH 7.0, Day 17 (10 days 40° C. then 7 days 50° C.)", "value": 6.10},
      {"measurement": "pH", "setting": "nominal pH 7.0, Initial", "value": 6.12},
      {"measurement": "pH", "setting": "nominal pH 7.0 UV Light, pH on completion of testing", "value": "6.07^a"},
      {"measurement": "pH", "setting": "nominal pH 7.5, Day 7 (7 days 40° C.)", "value": 6.58},
      {"measurement": "pH", "setting": "nominal pH 7.5, Day 17 (10 days 40° C. then 7 days 50° C.)", "value": 6.59},
      {"measurement": "pH", "setting": "nominal pH 7.5, Initial", "value": 6.60},
      {"measurement": "pH", "setting": "nominal pH 8.0, Day 7 (7 days 40° C.)", "value": 6.86},
      {"measurement": "pH", "setting": "nominal pH 8.0, Day 17 (10 days 40° C. then 7 days 50° C.)", "value": 6.84},
      {"measurement": "pH", "setting": "nominal pH 8.0, Initial", "value": 6.87},
      {"measurement": "pH", "setting": "nominal pH 9.0, Day 7 (7 days 40° C.)", "value": 7.72},
      {"measurement": "pH", "setting": "nominal pH 9.0, Day 17 (10 days 40° C. then 7 days 50° C.)", "value": 7.70},
      {"measurement": "pH", "setting": "nominal pH 9.0, Initial", "value": 7.71},
      {"measurement": "drop in pH on preparation", "setting": "pH 4 formulation", "value": 0.14, "unit": "units"},
      {"measurement": "drop in pH on preparation", "setting": "pH 9 formulation", "value": 1.29, "unit": "units"},
      {"measurement": "pH of the solutions", "setting": "10 mg/mL in the aqueous vehicles of the initial tests", "value": "3-4"},
      {"measurement": "pH after overnight storage", "setting": "20 mg/mL in B-R buffer, overnight storage under ambient conditions", "value": "no changes from the initial pH values"},
      {"measurement": "initial pH", "setting": "phosphate buffer at 20 mM", "value": 5.9},
      {"measurement": "pH on storage of the solution overnight in the laboratory", "setting": "phosphate buffer at 20 mM", "value": "continued to drop"},
      {"measurement": "initial pH", "setting": "[1]", "value": "> 6.5"},
      {"measurement": "pH on storage", "setting": "[1]", "value": "remained stable"}
    ]}
  ]
}
